Source: publication PMC4627230, “Identification of TAX2 peptide as a new unpredicted anti-cancer agent” (Oncotarget, 2015)

Columns and labels:
[1] = system: microvessel sprouting from mouse aortic rings (C57BL/6); test: Mouse aortic ring assay (ex vivo); details: 100 μM, 6 days, mouse aortic ring in matrigel
Procedure: Figure 2 TAX2 peptide impairs endothelial cell migration and inhibits angiogenesis in vitro and ex vivo A. HUVECs were treated with TAX2 (100 μM) or scrambled peptide (Ctrl, 100 μM). CD47 was immunoprecipitated from total protein lysates using anti-CD47 (clone B6H12) and non-specific IgGs were used as a negative control. Immunocomplexes were then submitted to SDS-PAGE and immunoblotted (IB) using specific TSP-1 and CD47 antibodies. Histogram represents the quantification of co-immunoprecipitated TSP-1 relative to immunoprecipitated CD47. Results are expressed as percentage compared to control (n = 3 separate experiments, t test). B. HUVECs (1 × 10^5 per well) were grown at confluence and then cell proliferation was inhibited by incubating with 10 μg/mL mitomycin C for 2 h. […] Graph represents the quantification of the wounded area. […] Hoechst-stained migrating cells attached on outside surface of the top chamber were photographed (20× objective) and counted. Results are expressed as percentage of migrated cells as compared to control. […] After 8 h incubation, HUVEC tube-like formation was observed on an inverted microscope (40×) and quantification of network total length was done using ImageJ software. […] Data are expressed as the mean ± SE from at least 3 independent experiments, each performed in triplicate. […] The transcriptional level of TSP-1 was assessed by RT-PCR and normalized to β-actin. […]

VEGFR2 = test: VEGF-induced VEGFR2 phosphorylation; assay type: cell-based, human; details: HUVECs, 100 μM for 12 h, then 30 ng/mL VEGF 5 min; n = 3
[2] = system: B16F1 melanoma tumor in C57BL/6 mice; test: Subcutaneous B16F1 melanoma allograft: tumor volume and necrosis; assay type: in vivo, mouse; details: 10 mg/kg i.p. days 3, 5, 7
Procedure: For the subcutaneous melanoma tumor model, suspensions of B16F1 cells (2.5 × 10^5 cells in 100 μL RPMI-1640 medium) were subcutaneously injected into the left flank of different randomized series of syngeneic C57BL/6 mice (n = 8–10 per group), as previously described. Intraperitoneal administrations of peptide (10 mg/kg mouse weight) or controls (physiological serum 0.9% (w/v) NaCl or a scrambled peptide) were performed at days 3, 5 and 7. In human pancreatic carcinoma xenograft experiments, 3 × 10^6 MIA PaCa-2 cells/mouse were implanted subcutaneously into the left flank of BALB/C athymic nude mice, then TAX2 intraperitoneal treatments (10 mg/kg mouse weight) were performed 3 times a week during 4 weeks starting at day 10 after tumor cells inoculation. Tumor volume was determined according to v = 0.5 A × B^2, where A denotes the largest dimension of the tumor and B represents the smallest dimension. At days indicated, mice were sacrificed and tumors were surgically extracted and fixed in 4% paraformaldehyde for further morphologic studies and for magnetic resonance imaging, or frozen for immunohistochemistry. Mice were also weighed every 2–3 days and daily checked for any modification in their behavior. Loss of 15% body weight was an indication for euthanasia as well as severe tumor necrosis, as it was sometimes associated with skin ulceration that would result in loss of body fluid and/or infection.
Histological analysis of formaldehyde-fixed and paraffin-embedded tumors were performed on hemalun, phloxin and saffron (HPS) stained 3 μm thick sections prepared using routine histological methods. To assess tumor-associated microvessel density (MVD), CD31 immunostaining was performed on 5 μm thick cryosections using biotin-labeled secondary antibody and streptavidin-HRP AEC detection system (Microm Microtech, Francheville, France), followed by hematein counter-coloration. Negative controls were done omitting the primary antibody. The necrotic part relative to total tumor surface for each tumor slice as well as MVD were quantified using ImageJ software.
Tumors were studied by magnetic resonance imaging (MRI) for visualization of tumor necrosis when the subcutaneous allografts reached a diameter of about 0.8 cm (day 12). […] Image treatment, segmentation, tri-dimensional reconstruction and quantification were performed using ImageJ and Amira 5.4.3 (Visualization Sciences Group, Burlington, MA, USA) software.
Animals were anesthetized by isoflurane (Forene, Abbott France, Rungis, France) inhalation (3% for induction and 1–1.5% for maintenance) and then after placed in a carbon fibers bed. […] Analysis of reconstructed images and quantification of the vascular network were performed using Amira 5.4.3 software.

CEVSQLLKGDAC (disulfide) [TAX2, CD47-derived cyclic disulfide dodecapeptide …]
microvessel sprouting from the aorta [1]: markedly inhibited | VEGF-induced VEGFR2 phosphorylation (VEGFR2): partially reverses VEGF-induced VEGFR2 phosphorylation | large central necrotic area inside tumor masses (MRI and μCT) [2]: large central necrotic area inside tumor masses | median tumor volume, melanoma ([2]; early stages (day 12, caliper), n = 54): No significant modification | increase of necrotic area vs control (HPS staining) ([2]; p < 0.05): about 3 fold | tumor necrosis at day 20 ([2]; photographs): substantial tumor necrosis
